Source: patent publication US20180179166A1, “SMALL MOLECULE INHIBITORS OF GP120-MEDIATED HIV INFECTION AND METHODS OF USE” (ViroCarb Inc., priority 2014, published 2018)
Where two headings read alike, the source gives them in different places.

Tests used:
[1] = test system: HIV-1IIIB virus (X4 tropism); test: Protocol 1: inhibition of HIV-1 in Jurkat T-cells, p24gag ELISA; assay type: cell-based; conditions: read-out: percent inhibitory activity
Procedure: HIV-1IIIB virus (X4 tropism) was pretreated with a control solution of DMSO or a given compound dissolved in DMSO to a final concentration of 100 μM for 1 hr at 37° C. Pretreated HIV-1 virus was then added (100 μl of 0.1 MOI) to 0.5×10^6 Jurkat (JKT C) T-cells in 100 μl RPMI media and incubated at 37° C. for an additional 1 hr with occasional mixing.
After 1 hour, the cells were centrifuged at 1000 rpm for 5 minutes and the cell pellet washed wash thrice with 2 ml Ca^2+ Mg^2+ free PBS. After the last wash, the cells were resuspended in medium and transferred to 12-well tissue culture plates and placed at 37° C.
On days 2 and 5 of culture, 0.5 ml aliquots of culture supernatant is collected and replaced with 0.5 ml of fresh medium. Aliquots are stored at −80° C. until ready for p24gag ELISA. ELISA for p24gag was done using ELISA plates from Zeptometrix using a standard protocol.

[2] = test system: HIV-1 BaL virus (R5 tropism); test: Protocol 2: inhibition of HIV-1 in PBMC, virus pre-treated with compound, p24gag ELISA; assay type: cell-based; conditions: Human immunodeficiency virus 1, 144 h, 100 μM compound, HIV-1 BaL (R5), day 6, read-out: percent inhibitory activity
Procedure: The protocol involves PBMCs which were purified by centrifugation at 500 g using Ficoll-Paque™ reagent. The cells were re-suspended in RPMI (10% FBS, 2 ug/ml PHA, 20 U/ml of IL-2) and incubated at 37° C. in 5% CO2 for 3 days.
HIV-1 BaL virus (R5 tropism) was pre-treated with a control solution of DMSO or a given compound dissolved in DMSO to a final concentration of 20-100 μM for 1 hour at 37° C. Pretreated HIV-1 viruses were then added (100 μl of 0.1 MOI) to 5×10^5 PBMCs in 100 μl RPMI media and then incubated at 37° C. for an additional 1 hour with occasional mixing. After 1 hour, the cells were centrifuged at 1000 rpm for 5 minutes and the cell pellet washed wash thrice with 2 ml Ca^2+ Mg^2+ free PBS.
After the last wash, the cells are re-suspended in medium and transferred to 12-well tissue culture plates and place at 37° C.
On day 6 of culture, 0.5 ml aliquots of culture supernatant were collected. Aliquots were stored at −80° C. until ready for p24gag ELISA. ELISA for p24gag was done using ELISA plates from Zeptometrix using a standard protocol.

[3] = test system: HIV-BaL virus (R5 tropism); test: Protocol 4: inhibition of HIV-1 in U87.CD4.CCR5 cells, p24gag ELISA; assay type: cell-based; conditions: Human immunodeficiency virus 1, 96 h, day 4 post-infection, read-out: percent inhibitory activity; for inhibition at 20 µM: 20 μM compound
Procedure: U87.CD4.CCR5 cell lines (5×10^4/well) were seeded in 24 well plates overnight. HIV-BaL virus (R5 tropism) was pretreated with a control solution of DMSO or a given compound dissolved in DMSO to a final concentration of 20-200 μM for 1 hr at 37° C.
Pretreated HIV-1 virus was then added (100 μl of 0.1 MOI) to pre-plated U87.CD4.CCR5 cells in 200 μl DMEM media and then incubated at 37° C. for an additional 1 hour with occasional mixing.
After 1 hour, the cells in each well were washed with 1 ml Ca^2+ Mg^2+ free PBS three times. After the last wash, 1 ml of DMEM was added to each well. On day 4 post-infection, 0.2 ml aliquots of culture supernatant was collected. Aliquots were stored at −80° C. until ready for p24gag ELISA. ELISA for p24gag was done using ELISA plates from Zeptometrix using a standard protocol.

[4] = test system: HIV-1IIIB virus (X4 tropism); test: Protocol 1: inhibition of HIV-1 in Jurkat T-cells, p24gag ELISA; assay type: cell-based; conditions: Human immunodeficiency virus 1, 20 μM compound, HIV-1IIIB (X4), read-out: percent inhibitory activity
[5] = test system: HIV-1 IIIb virus (X4 tropism); test: Protocol 3: inhibition of HIV-1 in TZM-bl reporter cells, luciferase, X4 virus; assay type: cell-based; conditions: Human immunodeficiency virus 1, IIIB, read-out: percent inhibitory activity against X4; for inhibition at 200 µM: 200 μM compound
Procedure: (§1) HIV-BaL virus (R5 tropism) and HIV-1 IIIb virus (X4 tropism) were pretreated with a given compound dissolved in DMSO to a final concentration of 100-200 μM for 1 hr at 37° C. in 96 well tissue culture plates. The TZM-bl HIV reporter cell line (1×10^4/well) in 100 ul DMEM is then added to each well and the 96 well tissue culture plates are incubated at 37° C. in 5% CO2 incubator.
(§2) TZM-bl cells were obtained from the NIH AIDS Reagent Program (Germantown Md., USA). TZM-bl, previously designated JC53-bl (clone 13) is a HeLa cell line. The parental cell line (JC.53) stably expresses large amounts of CD4 and CCR5. The TZM-bl cell line was generated from JC.53 cells by introducing separate integrated copies of the luciferase and ß-galactosidase genes under control of the HIV-1 promoter. The TZM-bl cell line is highly sensitive to infection with diverse isolates of HIV-1. The TZM-bl indicator cell line enables simple and quantitative analysis of HIV using either ß-gal or luciferase as a reporter. It is maximally sensitive to HIV infection by including DEAE-dextran in the infection medium. […] Further information about TZM-bl cells can be found in U.S. Pat. No. 6,797,462, issued to Tranzyme Pharma.
(§3) After 48 hours, half of the medium was removed and replaced with commercially available reagents that contain lysing buffer and substrate for luciferase. After 2 minutes of lysis and incubation, the luciferase activity of the TZM-bl cell is read using a commercial luminometer. The readout is translated as relative light units (RLU).

[6] = test system: HIV BaL; test: Example 5: HIV inhibition in human PBMC infected first, then treated with compound; assay type: cell-based, HIV-1; conditions: read-out: % HIV inhibitory activity
Procedure: In this Example, Compounds #32 and #38 were tested using human peripheral blood mononuclear cells (PBMC). The protocol used is the same as that of Example 2—Protocol 2, delineated in detail, above.
Methods. Briefly, 5×10^5 activated PBMCs were used per well in a 12-well tissue culture plate. The PBMCs were infected with HIV BaL for 1 hour and washed 2× with RPMI medium. The PBMCs were then mixed with compound #32 or #38 at concentrations of 6.0 μM, 25 μM or 100 μM, with solutions containing 20U/m1 of IL-2.
At day 3-post infection, 500 μl of fresh medium containing appropriate concentration of compounds were added. The supernatants were harvested at day 8. The level of HIV infection was determined as described in protocol 2.

[7] = test system: HIV-BaL virus (R5 tropism); test: Protocol 3: inhibition of HIV-1 in TZM-bl reporter cells, luciferase, R5 virus; assay type: cell-based; conditions: Human immunodeficiency virus 1, BAL, read-out: percent inhibitory activity against R5; for inhibition at 200 µM: 200 μM compound
Procedure: as §1, §2, §3

[8] = test system: JR-FL-R5 virus; test: Example 6: U87.CD4.CCR5 cells infected with replication-deficient luciferase HIV strain; assay type: cell-based; conditions: Human immunodeficiency virus 1, U87/CD4/CCR5, 48 h, read-out: % HIV inhibitory activity
Procedure: Methods. U87.CD4.CCR5 cells (2.5×10^4/well) were seeded overnight and then infected with a replication-deficient HIV strain containing a luciferase insertion in the nef gene (JR-FL-R5 virus). JR-FL-R5 virus was pre-incubated with each compound for 1 hour prior to infection. After two days, the cells were washed, lysed and measured for luciferase activity, which is indicative of viral integration and/or transcription. Compounds were tested in quadruplicates.

[9] = Human immunodeficiency virus 1, 100 μM compound, HIV-1IIIB (X4), Jurkat T-cells
[10] = Human immunodeficiency virus 1, Jurkat
[11] = Human immunodeficiency virus 1, BAL, PBMC, 192 h
[12] = 100 μM compound, TZM-bl cells, 48 hours

CCOC(=O)c1cnc(SCC(=O)Nc2cccc(C(=O)O)c2)nc1N [#1]
inhibition at 100 µM [1, 9]: 3%

Nc1cc(=O)[nH]c(SCC(=O)Nc2ccc(C(=O)O)cc2)n1 [#2]
inhibition at 100 µM [2]: 30%
inhibition at 100 µM [1, 9]: 88%

O=C(CSc1nnc(O)nc1O)N/N=C/c1ccc(C(=O)O)cc1 [#3]
inhibition at 100 µM [2]: 34%
inhibition at 100 µM [1, 9]: 71%

Nc1cc(=O)[nH]c(SCC(=O)Nc2ccc3c(c2)OCO3)n1 [#21]
inhibition at 100 µM [2]: 40%

Nc1cc(=O)[nH]c(SCC(=O)Nc2ccc(F)c(Cl)c2)n1 [#25]
inhibition at 100 µM [1, 10]: 18%

Nc1cc(=O)[nH]c(SCC(=O)Nc2ccc([N+](=O)[O-])cc2)n1 [#27]
inhibition at 100 µM [1, 10]: 20%

Nc1cc(=O)[nH]c(SCC(=O)Nc2ccc(C(=O)O)cn2)n1 [#28]
inhibition at 20 µM [3]: 27%

CCOC(=O)c1ccc(NC(=O)CSc2nc(N)cc(=O)[nH]2)nc1 [#29]
inhibition at 20 µM [3]: 24%
inhibition at 20 µM [4]: 75%

Nc1cc(=O)[nH]c(SCC(=O)Nc2cnc(C(=O)O)cn2)n1 [#30]
inhibition at 20 µM [3]: 19%

COC(=O)c1cnc(NC(=O)CSc2nc(N)cc(=O)[nH]2)cn1 [#31]
inhibition at 20 µM [3]: 21%

Nc1cc(=O)[nH]c(SCC(=O)Nc2ccc(CC(=O)O)cc2)n1 [#32]
inhibition at 200 µM ([5]; TZM-bl cells, 48 hours): 61%
inhibition at 6 µM ([6]; Human immunodeficiency virus 1, 192 h, 6.0 μM compound, human PBMC, HIV BaL, day 8): 54%
inhibition at 25 µM ([6]; Human immunodeficiency virus 1, 192 h, 25 μM compound, human PBMC, HIV BaL, day 8): 65%
inhibition at 100 µM ([6]; Human immunodeficiency virus 1, 192 h, 100 μM compound, human PBMC, HIV BaL, day 8): 82%
inhibition at 200 µM ([7]; TZM-bl cells, 48 hours): 94%
inhibition at 2 µM [8]: 32%
inhibition at 20 µM [4]: 80%

CCOC(=O)Cc1ccc(NC(=O)CSc2nc(N)cc(=O)[nH]2)cc1 [#33]
inhibition at 20 µM [3]: 27%

Nc1cc(=O)[nH]c(SCCC(=O)Nc2ccc(C(=O)O)cc2)n1 [#34]
inhibition at 200 µM ([5]; TZM-bl cells, 48 hours): 62%
inhibition at 200 µM ([7]; TZM-bl cells, 48 hours): 61%
inhibition at 20 µM [3]: 33%

COC(=O)c1ccc(NC(=O)CCSc2nc(N)cc(=O)[nH]2)cc1 [#35]
inhibition at 20 µM [3]: 27%

Nc1cc(=O)[nH]c(SCCC(=O)NCc2ccc(C(=O)O)cc2)n1 [#36]
inhibition at 20 µM [3]: 7%
inhibition at 20 µM [4]: 50%

O=C(CSc1nnc(O)nc1O)N/N=C/c1ccccn1 [#37]
inhibition at 200 µM ([3]; 200 μM compound): 28%
inhibition at 100 µM [1, 9]: 45%

O=C(CSc1nnc(O)nc1O)N/N=C/C=C/c1ccccc1 [#38]
inhibition at 100 µM ([5]; TZM-bl, 48 h): 69%
inhibition at 6 µM [6, 11]: 70%
inhibition at 25 µM [6, 11]: 90%
inhibition at 100 µM [6, 11]: 100%
inhibition at 100 µM ([7]; TZM-bl, 48 h): 73%
inhibition at 2 µM [8]: 30%
inhibition at 100 µM [1, 10]: 44%

O=C(CSc1nnc(O)nc1O)N/N=C/c1ccc(Br)cc1 [#39]
inhibition at 100 µM [5, 12]: 15%
inhibition at 100 µM [7, 12]: 15%
inhibition at 100 µM [1, 9]: 32%

O=C(CSc1nnc(O)nc1O)N/N=C/c1cccnc1 [#40]
inhibition at 100 µM [5, 12]: 57%
inhibition at 100 µM [7, 12]: 71%

O=C(CSc1nnc(O)nc1O)N/N=C/c1ccc(O)c([N+](=O)[O-])c1 [#41]
inhibition at 100 µM [5, 12]: 10%
inhibition at 100 µM [7, 12]: 14%

O=C(CSc1nnc(O)nc1O)N/N=C/c1ccc(C(=O)O)cn1 [#42]
inhibition at 100 µM [5, 12]: 25%
inhibition at 100 µM [7, 12]: 25%

CCOC(=O)c1ccc(/C=N/NC(=O)CSc2nnc(O)nc2O)nc1 [#43]
inhibition at 100 µM [5, 12]: 16%
inhibition at 100 µM [7, 12]: 12%

O=C(CSc1nnc(O)nc1O)N/N=C/c1ccc(-c2nn[nH]n2)cn1 [#44]
inhibition at 20 µM [3]: 10%

O=C(CSc1nnc(O)nc1O)N/N=C/c1ccc(-c2nccs2)cn1 [#47]
inhibition at 100 µM [5, 12]: 29%
inhibition at 100 µM [7, 12]: 27%

O=C(Cc1nnc(O)nc1O)N/N=C/C=C/c1ccccc1 [#48]
inhibition at 0.05 µM [8]: 28%

O=C(CC1CCS(=O)(=O)C1)N/N=C/C=C/c1ccccc1 (centres unmarked) [#49]
inhibition at 0.05 µM [8]: 45%

O=C(Cn1c(-c2ccccn2)nc2ccccc21)N/N=C/C=C/c1ccccc1 [#51]
inhibition at 0.05 µM [8]: 22%
